# Assays:
# K-Ras G13C = K-Ras G13C (Homo sapiens, UniProt P01116, G13C); assay: Raf-Ras (FRET or MOA) binding assay: disruption of BRAF RBD interaction with K-Ras G13C; details: with Cyclophilin A, TR-FRET; read-out: IC50 in the Raf-Ras (FRET or MOA) binding assay re: K-Ras G13C
# Text: Disruption of B-Raf Ras-Binding Domain (BRAF^RBD) Interaction with K-Ras by Compounds of the Invention (Also Called a FRET Assay or an MOA Assay)
# Note—The following protocol describes a procedure for monitoring disruption of K-Ras G12C (GMP-PNP) binding to BRAF^RBD by a compound of the invention. This protocol may also be executed substituting other Ras proteins or nucleotides.
# The purpose of this biochemical assay was to measure the ability of test compounds to facilitate ternary complex formation between a nucleotide-loaded K-Ras isoform and Cyclophilin A; the resulting ternary complex disrupts binding to a BRAF^RBD construct, inhibiting K-Ras signaling through a RAF effector. Data was reported as IC50 values.
# In assay buffer containing 25 mM HEPES pH 7.3, 0.002% Tween20, 0.1% BSA, 100 mM NaCl and 5 mM MgCl2, tagless Cyclophilin A, His 6-K-Ras-GMPPNP, and GST-BRAF^RBD were combined in a 384-well assay plate at final concentrations of 25 μM, 12.5 nM and 50 nM, respectively. Compound was present in plate wells as a 10-point 3-fold dilution series starting at a final concentration of 30 μM. […] TR-FRET signal was read on a microplate reader (Ex 320 nm, Em 665/615 nm). […]
# SW1573 [1] = details: Canon et al., Nature 575:217-223 (2019); cited from earlier work
# SW1573 [2] = details: Canon et al., Nature 575:217-223 (2019); cited from earlier work; remark: listed apart in the source
# AsPC-1 (K-Ras G12D) = assay: pERK potency assay, AsPC-1; assay type: cell-based; details: Homo sapiens, ASPC1, read-out: IC50 in the pERK potency assay with respect to AsPC-1 (K-Ras G12D)
# Text: The purpose of this assay was to measure the ability of test compounds to inhibit K-Ras in cells. Activated K-Ras induces increased phosphorylation of ERK at Threonine 202 and Tyrosine 204 (pERK). This procedure measures a decrease in cellular pERK in response to test compounds. The procedure described below in NCI-H358 cells is applicable to K-Ras G12C.
# Note: This protocol may be executed substituting other cell lines to characterize inhibitors of other RAS variants, including, for example, AsPC-1 (K-Ras G12D), Capan-1 (K-Ras G12V), or NCI-H1355 (K-Ras G13C).
# NCI-H358 cells were grown and maintained using media and procedures recommended by the ATCC. On the day prior to compound addition, cells were plated in 384-well cell culture plates (40 μl/well) and grown overnight in a 37° C., 5% CO2 incubator. Test compounds were prepared in 10, 3-fold dilutions in DMSO, with a high concentration of 10 mM. […]
# In some experiments, cellular pERK level was determined using the AlphaLISA SureFire Ultra p-ERK1/2 Assay Kit (PerkinElmer). […] Signal was read on an Envision plate reader (PerkinElmer) using standard AlphaLISA settings. […] Signal was plotted vs. the decadal logarithm of compound concentration, and IC50 was determined by fitting a 4-parameter sigmoidal concentration response model.
# Chain of K-Ras G13C (P01116 1-188 isoform P01116-2 G13C): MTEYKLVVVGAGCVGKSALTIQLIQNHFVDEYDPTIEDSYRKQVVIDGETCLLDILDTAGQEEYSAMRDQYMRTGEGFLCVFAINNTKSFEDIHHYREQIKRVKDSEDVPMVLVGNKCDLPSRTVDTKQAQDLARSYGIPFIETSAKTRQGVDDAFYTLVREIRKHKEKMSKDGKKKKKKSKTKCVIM
# Chain of K-Ras G13C (P62937 whole entry partner, the tested form may be a part): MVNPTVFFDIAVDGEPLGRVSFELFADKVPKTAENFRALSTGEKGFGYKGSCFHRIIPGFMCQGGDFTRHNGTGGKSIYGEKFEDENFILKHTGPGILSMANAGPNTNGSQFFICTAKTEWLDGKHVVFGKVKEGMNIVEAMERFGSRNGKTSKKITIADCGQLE
IC50 (K-Ras G13C),SMILES,IC50 (AsPC-1 (K-Ras G12D)),also measured
> 1.5 µM,"CCn1c(-c2cccnc2[C@H](C)OC)c2c3cc(ccc31)-c1cccc(c1)C[C@H](NC(=O)[C@@H](COC1CN(C(=O)C#CC(C)(C)N(C)C)C1)N(C)C)C(=O)N1CCC[C@H](N1)C(=O)OCC(C)(C)C2 (atropisomer, axis not shown) [EA169]",,
> 1.5 µM,"CCn1c(-c2cccnc2[C@H](C)OC)c2c3cc(ccc31)N1CCS[C@@H](C[C@H](NC(=O)[C@@H](COC3CN(C(=O)C#CC(C)(C)N(C)C)C3)C(C)C)C(=O)N3CCC[C@H](N3)C(=O)OCC(C)(C)C2)C1 (atropisomer, axis not shown) [EA171]",,
,C=CC(=O)N1CCN(c2nc(=O)n(-c3c(C)ccnc3C(C)C)c3nc(-c4c(O)cccc4F)c(F)cc23)[C@@H](C)C1 [AMG510],,sensitivity of cell line to RAS inhibitor (SW1573 [1]): insensitive; sensitivity of cell line SW1573 to the inhibitor (SW1573 [2]): insensitive
,CCn1c(-c2cccnc2[C@H](C)OC)c2c3cc(ccc31)-c1csc(n1)C[C@H](NC(=O)[C@H](C1CCCC1)N1CC[C@]3(CCN(C(=O)[C@@]4(C)CN4)C3)C1)C(=O)N1CCC[C@H](N1)C(=O)OCC(C)(C)C2 [FA5],> 8 µM,
,CCn1c(-c2cccnc2[C@H](C)OC)c2c3cc(ccc31)-c1cc(cc(C(F)F)c1)C[C@H](NC(=O)[C@H](C(C)C)N1CC[C@]3(CCN(C(=O)[C@@H]4N[C@@H]4C4CC4)C3)C1)C(=O)N1CCC[C@H](N1)C(=O)OCC(C)(C)C2 [FA17],> 8 µM,

# From US20240277796A1, “METHODS FOR INHIBITING RAS” (Revolution Medicines, Inc., priority 2021, published 2024)
